# Experiment: Inhibition of advanced glycation end product formation at 1 mM after 7 days by fluorescence assay
# Assay type: physicochemical
# Details: 168 h, 1000 µM
row,Compound,inhibition (INH) [%]
1,COc1cc(-c2cc(=O)c3c(O)c([C@H]4C[C@@H](O)[C@H](O)[C@H](C)O4)c(O[C@@H]4O[C@H](CO)[C@@H](O)[C@H](O)[C@H]4O)cc3o2)ccc1O,53
2,COc1cc(-c2cc(=O)c3c(O)c([C@H]4C[C@@H](O)[C@H](O)[C@H](C)O4)c(O)cc3o2)ccc1O,64.2
3,N=C(N)NN [PIMAGEDINE],60.5
